From patent US12403141B2, “Deuterated MK2 pathway inhibitors and methods of using the same” (ACLARIS THERAPEUTICS, INC., priority 2019, dated 2025)

Columns and labels:
human hepatocytes = assay: In vitro metabolite profile in human hepatocytes; type: in vitro ADME; design: key to UV % at 280-290 nm or observed (+ or --), metabolite M387 (O-dealkylation) / UV % at 280-290 nm or observed (+ or --), metabolite M532b (Hydroxylation) / UV % at 280-290 nm or observed (+ or --), metabolite M532e (Hydroxylation) / UV % at 280-290 nm or observed (+ or --), metabolite M563 (O-dealkylation + Glucuronidation) / UV % at 280-290 nm or observed (+ or --), metabolite M530b (Hydroxylation) / UV % at 280-290 nm or observed (+ or --), metabolite M530e (Hydroxylation): +: only detected by MS; --: not detected or trace; details: 10 μM; for UV % at 280-290 nm, Parent-T0 min: T0 min (normalized as 100%)
Protocol: (§1) Briefly, each test compound (final concentration of 10 μM containing 0.1% DMSO) was incubated with rat, dog, minipig, monkey, or human hepatocytes (final viable cell density of 1×10^6 cells/mL) at 37° C. with 5% CO2 in HI hepatocyte maintenance media (BIOIVT; Catalog #Z99009) for 120 minutes. Reactions were initiated by combining 200 μL of pre-warmed 2× dosing solution containing 20 μM test compound and 0.2% DMSO in HI maintenance media with 200 μL of pre-warmed hepatocyte solution containing 2×10^6 cells/mL in HI maintenance media. Samples were taken at 0 minutes (T0) and 120 minutes (T120) by quenching the reaction with 1200 μL acetonitrile. After quenching, the samples were sonicated for 2 minutes and then centrifuged at 1400 rpm for 5 minutes. A 1400-μL aliquot of the supernatant was evaporated under a stream of N2 until dry. The dried extracts were then reconstituted with 200 μL acetonitrile: H2O (1:3 v/v), vortexed for 2 minutes and centrifuged at 14000 rpm for 5 minutes. A 2-μL aliquot of the supernatant was injected onto a Xevo UPLC-UV-G2-S Q-Tof system (Waters®) with positive-ion electrospray ionization for analysis. Chromatographic separation was achieved on an Acquity UPLC®BEH C18 column (2.1×50 mm, 1.7 μm; Waters®) by gradient elution using varying proportions of mobile phase A (H2O with 0.1% formic acid) and mobile phase B (acetonitrile with 0.1% formic acid) at a constant flow rate of 400 μL/minute over a total run time of 10 minutes. LC-UV-MS extract ion chromatograms (EIC) of the T120 samples were compared to the T0 samples to identify the major putative metabolites which were named as Mm/z.

[1] = tested on: rat, dog, minipig, monkey, and human hepatocytes; assay: In vitro metabolite profile in hepatocytes, summary across species; type: in vitro ADME; details: hepatocytes from rat, 10 μM, 120 min
Protocol: as §1, with “Chromatographic separation was achieved on an Acquity UPLC®BEH C18 column (2.1×50 mm, 1.7 μm; Waters®) by gradient elution using varying proportions of mobile phase A (H2O with 0.1% formic acid) and mobile phase B (acetonitrile with 0.1% formic acid) at a constant flow rate of 400 μL/minute over a total run time of 10 minutes. LC-UV-MS extract ion chromatograms (EIC) of the T120 samples were compared to the T0 samples to identify the major putative metabolites which were named as Mm/z.” left out

[2] = 120 min, relative to parent at T0

UV % at 280-290 nm or observed (+ or --), metabolite M387 (O-dealkylation) (human hepatocytes; [2])	UV % at 280-290 nm or observed (+ or --), metabolite M530b (Hydroxylation) (human hepatocytes; [2])	UV % at 280-290 nm or observed (+ or --), metabolite M530c (Hydroxylation) (human hepatocytes; [2]) [%]	UV % at 280-290 nm or observed (+ or --), metabolite M530e (Hydroxylation) (human hepatocytes; [2])	UV % at 280-290 nm or observed (+ or --), metabolite M563 (O-dealkylation + Glucuronidation) (human hepatocytes; [2])	UV % at 280-290 nm or observed (+ or --), metabolite M530d (Hydroxylation) (human hepatocytes; [2]) [%]	UV % at 280-290 nm, Parent-T120 min (human hepatocytes; [2]) [%]	UV % at 280-290 nm, Parent-T0 min (human hepatocytes) [%]	UV % at 280-290 nm or observed (+ or --), metabolite M532b (Hydroxylation) (human hepatocytes; [2])	UV % at 280-290 nm or observed (+ or --), metabolite M532e (Hydroxylation) (human hepatocytes; [2])	total number of metabolites formed [1]	Compound
3.5%	+	1.3	+	--	1.5	84.8	100.0				Cc1cnc(-c2ccnc(C(C)(C)O)n2)cc1-n1c(C)cc(OCc2ncc(F)cc2F)c(Cl)c1=O (atropisomer, axis not shown; (P)) [Example 1-H2, (P)-3-chloro-4-((3,5-difluoropyridin-2-yl)methoxy)-2′-(2-(2-hydroxypropan-2-yl)pyrimidin-4-yl)-5′,6-dimethyl-2H-[1,4′-bipyridin]-2-one]
+						88.2	100.0	+	+	5	[2H]C([2H])(Oc1cc(C)n(-c2cc(-c3ccnc(C(C)(C)O)n3)ncc2C)c(=O)c1Cl)c1ncc(F)cc1F (single isomer, unassigned) [Example 1-D2, (P)-3-Chloro-4-((3,5-difluoropyridin-2-yl)methoxy-d2)-2′-(2-(2-hydroxypropan-2-yl)pyrimidin-4-yl)-5′,6-dimethyl-2H-[1,4′-bipyridin]-2-one]
